This is an account of results in US9814714B2, “Kinase modulation, and indications therefor” (Plexxikon Inc., priority 2015, dated 2017).

In one assay the test system is HT-29 cells. Nature of the assay: Growth assay (CellTiter-Glo), HT-29. Type of assay: cell-based. The conditions noted are these: Homo sapiens, HT-29, 72 h; colorectal adenocarcinoma; BRAF V600E/WT, RAS WT; 3 days. An excerpt: (§1) In order to determine the effects of Formula I on proliferation, a growth assay was established using melanoma cells (A375 and COLO829) and colorectal carcinoma cells (COLO205, HT-29) which each express the BRAFV600E mutation. To show selectivity over wild-type BRAF, several BRAF wild-type cell lines (K562, NOMO-1, MV-4-11 and ML-2) were also examined in the growth assay. The growth assay implemented the Promega CellTiter-Glo Luminescent Cell viability assay, which gives a luminescent readout that is proportional to the amount of ATP present in a cell sample. As ATP levels directly correlate with the number of viable cells, the luminescent signal can be used to determine the potency of Formula I to block the proliferation of the cell lines of interest.
(§2) 1. 3,000 cells were plated in each well for cell lines A375, COLO205, COLO829, HT-29, and SK-MEL-3. 25,000 cells were plated in each well for cell lines K562, ML-2, MV-4-11, and
(§3) NOMO-1 of a 96-well tissue-culture-treated plate (Corning #3610) in a 50 μL volume. Cells were incubated overnight at 37° C.
(§4) 2. Each test compound was plated as an 8-point titration, using 1:3 dilutions in DMSO. The maximum concentration was about 5 mM. Dilute DMSO and test compound of Formula I 1:250 in growth media.
3. […]
(§5) 4. […] Luminescence was measured on a Tecan Safire plate reader. […]
Background: Cellular ATP, detected with luciferase, serves as a proxy for viable cell number.

A further assay has as its system NOMO-1 cells. Nature of the assay: Growth assay (CellTiter-Glo), NOMO-1. It counts as cell-based. The conditions noted are these: Homo sapiens, NOMO-1, 72 h; acute myeloid leukemia; BRAF WT, KRAS-G13D; 3 days.
Source text: as §1, §2, §3, §4
3. […]
as §5

A further assay has as its target BRAF_V600R (Homo sapiens, UniProt P15056, V600R). Briefly: RAF kinase biochemical assay, BRAF V600R. The conditions noted are these: Table 3; ATP 100 μM. On the procedure: BRAF proteins were produced in insect cells at Plexxikon Inc. as N-terminally His-tagged fragments encompassing the kinase domain.
1) Test compounds in DMSO were serially diluted and plated into 384-well assay plates at 1 μL/well.
2) Added were 15 μL/well of RAF enzyme and biotinylated-MEK1 substrate in kinase buffer.
3) Added were 4 μL of ATP (500 μM) in kinase buffer.
5) After a brief spin down, the plate was incubated at about room temperature for 40-50 minutes. 6) Added was 5 μL of Stop buffer at final EDTA 20 mM; anti-phospho-MEK1 1:2,500; donor/acceptor beads 3 μg/mL. 7) After brief spin down, the plate was incubated at room temperature for about 3 hours. 8) The plate was read on the Envision multilabel plate reader (Perkin Elmer). […] 2. Results

BRAF_V600R, sequence (P15056 448-723 V600R): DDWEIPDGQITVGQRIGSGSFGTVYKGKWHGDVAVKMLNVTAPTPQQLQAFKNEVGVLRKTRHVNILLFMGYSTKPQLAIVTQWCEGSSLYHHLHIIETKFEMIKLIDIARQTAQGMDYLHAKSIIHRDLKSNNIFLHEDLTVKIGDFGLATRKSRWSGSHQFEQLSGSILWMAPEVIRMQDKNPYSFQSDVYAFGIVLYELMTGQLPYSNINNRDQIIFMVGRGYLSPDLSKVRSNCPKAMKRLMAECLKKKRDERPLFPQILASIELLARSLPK

The term IC50 denotes the concentration needed to halve the response being measured. As to `O=C(c1c(F)ccc(NS(=O)(=O)N2CC[C@@H](F)C2)c1F)c1c[nH]c2ncc(-c3cnc(C4CC4)nc3)cc12` [Formula I, (3R)—N-[3-[5-(2-cyclopropylpyrimidin-5-yl)-1H-pyrrolo[2,3-b]pyridine-3-carbonyl]-2,4-difluorophenyl]-3-fluoropyrrolidine-1-sulfonamide], the IC50 was 840 nM with HT-29 cells, more than 10 µM in the assay with NOMO-1 cells and 3.5 nM on BRAF_V600R.
